Measured values published in PMC2229105 (The Journal of General Physiology, 1992).
Like-named read-outs stand apart in the source and are kept apart here.

Tests used:
[1] = test system: T-type Ca channels (guinea pig atrial cells); test: whole-cell patch clamp, tail current analysis, modulated receptor theory; type: cell-based, Cavia porcellus; conditions: read-out: KI, inactivated state (apparent)
[2] = test system: T-type Ca channels in GH3 cells; test: as above; type: cell-based, Rattus norvegicus; conditions: read-out: KI; inactivated state (apparent); six experiments

SMILES | Kd ([1]; 30-s prepulse) [nM] | also measured
COC(=O)C1=C(C)NC(C)=C(C(=O)OC(C)C)C1c1cccc2nonc12 (stereo not shown) [isradipine] | 20.4 | 
CCOC(=O)C1=C(C)NC(C)=C(C(=O)OC)C1c1cccc(Cl)c1Cl (stereo not shown) [felodipine] |  | Kd [2]: 680 ± 220 nM
CC1=C(C(=O)OC(C)C)[C@@H](c2cccc3nonc23)C([N+](=O)[O-])=C(C)N1 [(-)-(R)-202-791] | 15.3 | 
CC(C)COCC(CN(Cc1ccccc1)c1ccccc1)N1CCCC1 (stereo not shown) [bepridil] |  | Kd ([1]; from block by 0.5 µM drug): 1240 nM
